Experimental data reported in patent US20260306527A1, “PRMT INHIBITOR COMPOUNDS AND THE USES THEREOF” (Purdue Research Foundation, priority 2023, published 2026).

Legend:
Format in all cases: biochemical
PRMT6 = PRMT6 (Homo sapiens, UniProt Q96LA8); test: radioactive assay (Reaction Biology Corp.), inhibition of PRMT6
Protocol: (§1) Next, the inhibition activity of the library was investigated for five PRMT members from type I PRMTs.
(§2) The PRMT 4, 6 and 8 methylation assays were performed by Reaction Biology corp.

PRMT8 = PRMT8 (Homo sapiens, UniProt Q9NR22); test: radioactive assay (Reaction Biology Corp.), inhibition of PRMT8
Sequence of PRMT8 (Q9NR22 whole entry, species assumed): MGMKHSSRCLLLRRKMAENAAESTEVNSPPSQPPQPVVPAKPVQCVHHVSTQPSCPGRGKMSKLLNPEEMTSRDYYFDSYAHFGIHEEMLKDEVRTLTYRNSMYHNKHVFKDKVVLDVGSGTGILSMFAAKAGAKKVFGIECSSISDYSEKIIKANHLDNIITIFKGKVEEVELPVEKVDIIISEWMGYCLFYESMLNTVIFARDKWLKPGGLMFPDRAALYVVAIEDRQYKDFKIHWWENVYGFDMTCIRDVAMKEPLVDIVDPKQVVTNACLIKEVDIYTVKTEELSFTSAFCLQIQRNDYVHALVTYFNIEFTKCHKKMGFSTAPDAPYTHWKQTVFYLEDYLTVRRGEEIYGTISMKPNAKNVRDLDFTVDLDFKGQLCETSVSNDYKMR
Protocol: as §1, §2

PRMT4 = molecular target: T1, PRMT4 (Homo sapiens, UniProt Q86X55); test: radioactive assay (Reaction Biology Corp.), inhibition of PRMT4
T1 sequence (Q86X55 1-608): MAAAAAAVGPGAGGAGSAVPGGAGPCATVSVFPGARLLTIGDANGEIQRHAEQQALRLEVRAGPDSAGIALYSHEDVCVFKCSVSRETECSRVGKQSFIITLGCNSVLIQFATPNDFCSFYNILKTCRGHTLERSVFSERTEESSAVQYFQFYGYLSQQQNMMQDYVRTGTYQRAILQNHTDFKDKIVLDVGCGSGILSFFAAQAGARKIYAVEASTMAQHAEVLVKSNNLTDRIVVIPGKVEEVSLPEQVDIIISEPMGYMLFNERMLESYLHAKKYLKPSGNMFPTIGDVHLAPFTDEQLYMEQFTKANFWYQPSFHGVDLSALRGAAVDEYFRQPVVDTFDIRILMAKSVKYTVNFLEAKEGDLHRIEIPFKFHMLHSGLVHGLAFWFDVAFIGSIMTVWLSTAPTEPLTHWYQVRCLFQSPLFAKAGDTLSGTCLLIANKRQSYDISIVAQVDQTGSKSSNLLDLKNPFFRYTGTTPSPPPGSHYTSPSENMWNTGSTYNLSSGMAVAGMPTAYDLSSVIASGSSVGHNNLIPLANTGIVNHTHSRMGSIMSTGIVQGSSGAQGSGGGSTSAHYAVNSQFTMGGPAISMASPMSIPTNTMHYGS
Protocol: as §1, §2

PRMT3 = PRMT3 (Homo sapiens, UniProt O60678); test: SAHH-coupled fluorescence assay, inhibition of PRMT3; design: PRMT3 (residues 211-531) was cloned into the pET28a-MHL expression vector; tag of the pET28a-MHL vector (not described); made in house; host or cells: Escherichia coli BL21(DE3)
Sequence of PRMT3 (O60678 211-531): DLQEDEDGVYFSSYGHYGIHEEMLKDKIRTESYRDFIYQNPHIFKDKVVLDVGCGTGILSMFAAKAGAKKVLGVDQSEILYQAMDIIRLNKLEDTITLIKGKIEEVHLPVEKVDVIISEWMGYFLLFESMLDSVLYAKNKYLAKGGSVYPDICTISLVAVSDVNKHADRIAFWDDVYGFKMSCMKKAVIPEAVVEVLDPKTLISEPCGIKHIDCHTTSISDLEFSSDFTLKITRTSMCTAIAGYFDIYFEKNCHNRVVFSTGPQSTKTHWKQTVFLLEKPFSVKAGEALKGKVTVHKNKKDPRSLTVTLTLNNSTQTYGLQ
Protocol: (§3) A fluorescence-based SAHH-coupled assay was applied to study the inhibition activity of all synthesized compounds on PRMT 1 and 3.
(§4) The PRMT3 methylation assay was performed under the following conditions in a final well volume of 100 μL: 20 mM Tris (pH=7.5), 0.01% Triton X-100, 5 μM SAHH, 0.25 μM PRMT3, 30 μM AdoMet, and 15 μM ThioGlo4. […] Fluorescence was monitored on a BMG CLARIOstar microplate reader with excitation 380 nm and emission 505 nm. Data were processed by using GraphPad Prism software 8.0. All experiments were performed in duplicate.
as §1
as §4, with “8.0.” for “8.0. All experiments were performed in duplicate.”

PRMT1 = molecular target: T2, PRMT1 (Homo sapiens, UniProt Q99873); test: SAHH-coupled fluorescence assay, inhibition of PRMT1; details: for IC50: read-out: IC50 FOR PRMT1
T2 construct: made in house
T2 sequence (Q99873 whole entry, species assumed): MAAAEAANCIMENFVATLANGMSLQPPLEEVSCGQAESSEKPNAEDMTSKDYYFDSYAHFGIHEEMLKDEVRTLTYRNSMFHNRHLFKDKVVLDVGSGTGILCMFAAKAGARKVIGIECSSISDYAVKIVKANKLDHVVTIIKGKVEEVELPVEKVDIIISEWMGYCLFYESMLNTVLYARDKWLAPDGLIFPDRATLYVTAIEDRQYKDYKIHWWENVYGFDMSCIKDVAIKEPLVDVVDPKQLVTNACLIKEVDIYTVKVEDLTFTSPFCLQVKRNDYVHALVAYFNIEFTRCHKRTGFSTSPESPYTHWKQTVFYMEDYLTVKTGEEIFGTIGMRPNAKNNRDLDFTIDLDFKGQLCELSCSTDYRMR
Protocol: as §3
(§5) The PRMT1 methylation assay was performed under the following conditions in a final well volume of 100 μL: 2.5 mM HEPES (pH=7.0), 25 mM NaCl, 25 μM EDTA, 50 μM TCEP, 0.01% Triton X-100, 5 μM SAHH, 0.1 μM PRMT1, 10 μM AdoMet, and 10 μM ThioGlo4. […] The fluorescence signal was monitored on a BMG CLARIOstar microplate reader with excitation at 400 nm and emission at 465 nm for 15 min. Data were processed using GraphPad Prism software 8.0.
as §1
as §5, with “A fluorescence-based SAHH-coupled assay was applied to determine the inhibition activity of all synthesized compounds on PRMT 1 and 3. The PRMT1” for “The PRMT1”, “software 8.0. All experiments were performed in duplicate.” for “software 8.0.”

Sequence of PRMT6 (Q96LA8 whole entry, species assumed): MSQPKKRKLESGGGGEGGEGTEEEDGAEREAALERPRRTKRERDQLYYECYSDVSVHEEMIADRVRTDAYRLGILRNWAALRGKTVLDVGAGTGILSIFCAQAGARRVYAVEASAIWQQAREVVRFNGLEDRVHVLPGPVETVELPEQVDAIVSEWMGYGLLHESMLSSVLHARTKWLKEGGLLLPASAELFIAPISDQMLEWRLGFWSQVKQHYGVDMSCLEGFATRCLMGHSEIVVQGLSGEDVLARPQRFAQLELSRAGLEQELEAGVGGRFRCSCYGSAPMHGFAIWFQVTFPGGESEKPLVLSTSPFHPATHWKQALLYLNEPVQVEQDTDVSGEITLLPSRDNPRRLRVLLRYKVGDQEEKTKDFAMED

Compound	inhibition at 10 µM (PRMT6) [%]	PRMT6 inhibition (PRMT6; 10 μM)	inhibition at 10 µM (PRMT8) [%]	inhibition at 10 µM (PRMT4) [%]	inhibition at 10 µM (PRMT3) [%]	inhibition at 10 µM (PRMT1) [%]	IC50 (PRMT1) [nM]
COc1cc2nc(-c3ccc(O)cc3)nc(NCCSC[C@H]3O[C@@H](n4cnc5c(N)ncnc54)[C@H](O)[C@@H]3O)c2cc1OC [Compound 12b]	91	selective inhibition to PRMT6	22	-4	13	2	–
COc1cc2nc(-c3cccc(F)c3)nc(NCCSC[C@H]3O[C@@H](n4cnc5c(N)ncnc54)[C@H](O)[C@@H]3O)c2cc1OC [Compound 12c]	43	–	35	62	15	15	–
COc1cc2nc(-c3ccoc3)nc(NCCSC[C@H]3O[C@@H](n4cnc5c(N)ncnc54)[C@H](O)[C@@H]3O)c2cc1OC [Compound 12d]	16	–	25	1	10	2	–
COc1cc2nc(-c3ccc(C(F)(F)F)cc3)nc(NCCSC[C@H]3O[C@@H](n4cnc5c(N)ncnc54)[C@H](O)[C@@H]3O)c2cc1OC [Compound 12e]	19	–	37	43	5	3	–
COc1cc2nc(-c3ccc(F)c(O)c3)nc(NCCSC[C@H]3O[C@@H](n4cnc5c(N)ncnc54)[C@H](O)[C@@H]3O)c2cc1OC [Compound 12f]	16	–	21	51	9	12	–
COc1cc2nc(-c3cccc(O)c3)nc(NCCSC[C@H]3O[C@@H](n4cnc5c(N)ncnc54)[C@H](O)[C@@H]3O)c2cc1OC [Compound 12g]	13	–	25	10	4	2	–
COc1cc2nc(-c3ccccc3O)nc(NCCSC[C@H]3O[C@@H](n4cnc5c(N)ncnc54)[C@H](O)[C@@H]3O)c2cc1OC [Compound 12h]	16	–	18	36	12	1	–
COc1cc2nc(-c3ccc(N)cc3)nc(NCCSC[C@H]3O[C@@H](n4cnc5c(N)ncnc54)[C@H](O)[C@@H]3O)c2cc1OC [Compound 12j]	8	–	21	1	13	12	–

More lines, now with the values ahead:

inhibition at 10 µM (PRMT6) [%]	PRMT6 inhibition (PRMT6; 10 μM)	inhibition at 10 µM (PRMT8) [%]	inhibition at 10 µM (PRMT4) [%]	inhibition at 10 µM (PRMT3) [%]	inhibition at 10 µM (PRMT1) [%]	IC50 (PRMT1) [nM]	Compound
-4	–	38	47	9	2	–	Nc1ncnc2c1ncn2[C@@H]1O[C@H](CSCCOc2ccc(-c3ccc(Cl)cc3)cc2)[C@@H](O)[C@H]1O [Compound 14a]
20	–	20	13	6	8	–	Nc1ncnc2c1ncn2[C@@H]1O[C@H](CSCCOc2ccc(-c3ccc(O)cc3)cc2)[C@@H](O)[C@H]1O [Compound 14b]
3	–	39	17	6	3	–	Nc1ncnc2c1ncn2[C@@H]1O[C@H](CSCCOc2ccc(-c3ccoc3)cc2)[C@@H](O)[C@H]1O [Compound 14c]
18	–	42	51	3	16	–	Nc1ncnc2c1ncn2[C@@H]1O[C@H](CSCCOc2ccc(-c3ccc(F)c(O)c3)cc2)[C@@H](O)[C@H]1O [Compound 14d]
7	–	28	22	16	7	–	Nc1ncnc2c1ncn2[C@@H]1O[C@H](CSCCOc2ccc(-c3cncnc3)cc2)[C@@H](O)[C@H]1O [Compound 14e]
13	–	40	62	5	5	–	Nc1ncnc2c1ncn2[C@@H]1O[C@H](CSCCOc2ccc(-c3cccc(O)c3)cc2)[C@@H](O)[C@H]1O [Compound 14f]
10	–	39	35	5	5	–	Nc1ncnc2c1ncn2[C@@H]1O[C@H](CSCCOc2ccc(-c3ccccc3O)cc2)[C@@H](O)[C@H]1O [Compound 14g]
6	–	15	48	8	10	–	Nc1ncnc2c1ncn2[C@@H]1O[C@H](CSCCOc2ccc(-c3ccncc3)cc2)[C@@H](O)[C@H]1O [Compound 14h]
84	–	85	47	14	94	650 ± 62	CCCCNC(=N)NCCCSC[C@H]1O[C@@H](n2cnc3c(NCCCc4ccccc4)ncnc32)[C@H](O)[C@@H]1O [Compound 19a]
73	–	69	23	13	86	1200 ± 52	N=C(NCCCSC[C@H]1O[C@@H](n2cnc3c(NCCCc4ccccc4)ncnc32)[C@H](O)[C@@H]1O)NC1CC1 [Compound 19b]
93	–	91	50	8	80	550 ± 51	N=C(NCCCSC[C@H]1O[C@@H](n2cnc3c(NCCCc4ccccc4)ncnc32)[C@H](O)[C@@H]1O)NC1CCC1 [Compound 19c]
91	–	85	60	8	90	590 ± 71	N=C(NCCCSC[C@H]1O[C@@H](n2cnc3c(NCCCc4ccccc4)ncnc32)[C@H](O)[C@@H]1O)NC1CCCC1 [Compound 19d]
88	–	79	44	10	89	750 ± 46	N=C(NCCCSC[C@H]1O[C@@H](n2cnc3c(NCCCc4ccccc4)ncnc32)[C@H](O)[C@@H]1O)NC1CCCCC1 [Compound 19e]
88	–	74	36	3	76	920 ± 91	N=C(NCCCSC[C@H]1O[C@@H](n2cnc3c(NCCCc4ccccc4)ncnc32)[C@H](O)[C@@H]1O)NCC1CC1 [Compound 19f]
